{"source": "paper PMC12606247", "about": "“Bidirectional communication between nucleotide and substrate binding sites in a type IV multidrug ABC transporter” (Nature Communications, 2025)", "key": {"BmrA full-length [1]": {"biological_target": "T1, BmrA full-length (Bacillus subtilis, UniProt O06967)", "T1 construct": "full-length half transporter, C-terminal His6 tag, E. coli C41(DE3); homodimer in DDM/cholate, MSP1E3D1 nanodiscs or inside-out vesicles", "test": "HDX-MS (also fluorescence transport assay in inside-out vesicles)", "type": "binding", "conditions": "100 μM doxorubicin, nanodiscs, pD 8.0, 20 °C"}, "BmrA NBD [2]": {"biological_target": "T2, BmrA NBD (Bacillus subtilis, UniProt O06967)", "T2 sequence (O06967 331-589)": "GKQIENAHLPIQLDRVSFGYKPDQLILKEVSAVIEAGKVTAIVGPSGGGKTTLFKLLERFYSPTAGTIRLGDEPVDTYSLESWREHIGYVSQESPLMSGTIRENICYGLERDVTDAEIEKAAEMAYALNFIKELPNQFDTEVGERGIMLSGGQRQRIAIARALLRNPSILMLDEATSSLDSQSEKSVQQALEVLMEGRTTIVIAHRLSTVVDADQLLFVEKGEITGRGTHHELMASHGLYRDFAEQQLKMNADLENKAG", "test": "1H, […]-HSQC NMR chemical shift perturbation", "type": "binding", "conditions": "10 mM ATP, 50 mM BisTris pH 7, 50 mM NaCl, 298 K"}, "MsbA NBD": {"biological_target": "MsbA NBD (Escherichia coli, UniProt P60752)", "sequence (P60752 323-582)": "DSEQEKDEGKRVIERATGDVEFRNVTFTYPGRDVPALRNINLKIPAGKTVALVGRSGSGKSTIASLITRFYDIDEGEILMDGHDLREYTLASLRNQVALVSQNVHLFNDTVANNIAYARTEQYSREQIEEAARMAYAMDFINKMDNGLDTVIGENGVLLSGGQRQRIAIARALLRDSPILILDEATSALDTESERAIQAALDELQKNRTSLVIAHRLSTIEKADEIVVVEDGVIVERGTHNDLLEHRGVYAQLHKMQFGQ", "test": "1H, […]-HSQC NMR chemical shift perturbation", "type": "binding", "conditions": "50 mM BisTris pH 7, 50 mM NaCl, 298 K"}, "LmrA NBD": {"biological_target": "LmrA NBD (Lactococcus cremoris, UniProt P97046)", "sequence (P97046 330-590)": "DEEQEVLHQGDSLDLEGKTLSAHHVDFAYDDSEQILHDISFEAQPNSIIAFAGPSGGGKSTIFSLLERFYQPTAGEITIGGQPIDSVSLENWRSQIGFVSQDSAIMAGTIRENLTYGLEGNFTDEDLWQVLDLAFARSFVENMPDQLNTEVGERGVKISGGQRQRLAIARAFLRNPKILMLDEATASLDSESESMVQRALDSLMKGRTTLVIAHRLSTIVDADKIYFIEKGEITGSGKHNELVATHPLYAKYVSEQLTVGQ", "test": "1H, […]-HSQC NMR chemical shift perturbation", "type": "binding", "conditions": "50 mM BisTris pH 7, 50 mM NaCl, 298 K"}, "BmrA full-length [3]": {"biological_target": "T1, BmrA full-length", "test": "ATPase assay coupled to NADH oxidation (also […] NMR)", "type": "biochemical", "conditions": "10 mM MgCl2, pH 8, 37 °C; detergent, nanodiscs or liposomes"}, "BmrA NBD [4]": {"biological_target": "BmrA NBD (Bacillus subtilis, UniProt O06967, R389K)", "sequence (O06967 331-589 R389K)": "as the sequence (O06967 331-589) above, with R59K counted along it", "test": "biochemical"}, "BmrA NBD [5]": {"biological_target": "BmrA NBD (Bacillus subtilis, UniProt O06967, R389M)", "sequence (O06967 331-589 R389M)": "as the sequence (O06967 331-589) above, with R59M counted along it", "test": "biochemical"}, "BmrA NBD [6]": {"biological_target": "BmrA NBD (Bacillus subtilis, UniProt O06967, R414K)", "sequence (O06967 331-589 R414K)": "as the sequence (O06967 331-589) above, with R84K counted along it", "test": "biochemical"}, "BmrA NBD [7]": {"biological_target": "BmrA NBD (Bacillus subtilis, UniProt O06967, K380A)", "sequence (O06967 331-589 K380A)": "as the sequence (O06967 331-589) above, with K50A counted along it", "test": "biochemical"}, "BmrA NBD [8]": {"biological_target": "BmrA NBD (Bacillus subtilis, UniProt O06967, R414A)", "sequence (O06967 331-589 R414A)": "as the sequence (O06967 331-589) above, with R84A counted along it", "test": "biochemical"}, "BmrA NBD [9]": {"biological_target": "T2, BmrA NBD", "test": "dissociation constant (method not stated in main text)", "type": "binding", "conditions": "read-out: KD, ADP"}, "BmrA NBD [10]": {"biological_target": "BmrA NBD (Bacillus subtilis, UniProt O06967, W413F)", "sequence (O06967 331-589 W413F)": "as the sequence (O06967 331-589) above, with W83F counted along it", "test": "biochemical"}, "BmrA full-length [11]": {"biological_target": "T1, BmrA full-length", "test": "[…] NMR of 5-fluorotryptophan-labelled protein (W413 line broadening)", "type": "binding", "conditions": "15 mM reserpine, MSP1E3D1 nanodiscs, E. coli polar lipids, 298 K"}}}
{"smiles": "COc1cccc2c1C(=O)c1c(O)c3c(c(O)c1C2=O)C[C@@](O)(C(=O)CO)C[C@@H]3O[C@H]1C[C@H](N)[C@H](O)[C@H](C)O1", "note": "[doxorubicin]", "values": [{"measurement": "HDX-MS (also fluorescence transport assay in inside-out vesicles)", "setting": "BmrA full-length [1]", "value": "in the absence and presence of doxorubicin showed decreased exchange in the TMD"}]}
{"smiles": "Nc1ncnc2c1ncn2[C@@H]1O[C@H](COP(=O)(O)OP(=O)(O)OP(=O)(O)O)[C@@H](O)[C@H]1O", "note": "[ATP]", "values": [{"measurement": "1H,15N-HSQC NMR chemical shift perturbation", "setting": "BmrA NBD [2]", "value": "(BmrA W413, LmrA W421, MsbA L415) responded to the addition of ATP or ADP"}, {"measurement": "1H,15N-HSQC NMR chemical shift perturbation", "setting": "MsbA NBD; 10 mM ATP", "value": "(BmrA W413, LmrA W421, MsbA L415) responded to the addition of ATP or ADP"}, {"measurement": "1H,15N-HSQC NMR chemical shift perturbation", "setting": "LmrA NBD; 10 mM ATP", "value": "(BmrA W413, LmrA W421, MsbA L415) responded to the addition of ATP or ADP"}, {"measurement": "ATPase assay coupled to NADH oxidation (also 19F NMR)", "setting": "BmrA full-length [3]", "value": "ATPase activity of purified BmrA full-length WT, K380A and hinge mutant constructs was determined"}]}
{"smiles": "Nc1ncnc2c1ncn2[C@@H]1O[C@H](COP(=O)(O)OP(=O)(O)O)[C@@H](O)[C@H]1O", "note": "[ADP]", "values": [{"measurement": "Kd", "setting": "BmrA NBD [4]", "value": "221 ± 105", "unit": "µM"}, {"measurement": "Kd", "setting": "BmrA NBD [5]", "value": "2890 ± 1460", "unit": "µM"}, {"measurement": "1H,15N-HSQC NMR chemical shift perturbation", "setting": "MsbA NBD; 10 mM ADP", "value": "(BmrA W413, LmrA W421, MsbA L415) responded to the addition of ATP or ADP"}, {"measurement": "Kd", "setting": "BmrA NBD [6]", "value": "266 ± 97", "unit": "µM"}, {"measurement": "Kd", "setting": "BmrA NBD [7]", "value": "14400 ± 3700", "unit": "µM"}, {"measurement": "Kd", "setting": "BmrA NBD [8]", "value": "575 ± 43.5", "unit": "µM"}, {"measurement": "Kd", "setting": "BmrA NBD [9]", "value": "214 ± 43", "unit": "µM"}, {"measurement": "Kd", "setting": "BmrA NBD [10]", "value": "221 ± 54", "unit": "µM"}, {"measurement": "1H,15N-HSQC NMR chemical shift perturbation", "setting": "LmrA NBD; 10 mM ADP", "value": "(BmrA W413, LmrA W421, MsbA L415) responded to the addition of ATP or ADP"}]}
{"smiles": "COC(=O)[C@H]1[C@H]2C[C@@H]3c4[nH]c5cc(OC)ccc5c4CCN3C[C@H]2C[C@@H](OC(=O)c2cc(OC)c(OC)c(OC)c2)[C@@H]1OC", "note": "[reserpine]", "values": [{"measurement": "19F NMR of 5-fluorotryptophan-labelled protein (W413 line broadening)", "setting": "BmrA full-length [11]", "value": "Addition of ATP or the substrate reserpine resulted in changes in chemical shift and linewidths"}]}
